Data reported in publication PMC5428509, “Irreversible inhibition of BTK kinase by a novel highly selective inhibitor CHMFL-BTK-11 suppresses inflammatory response in rheumatoid arthritis model” (Scientific Reports, 2017).

Legend:
Test in all cases: biochemical
Design in all cases: KinomeScan competition binding panel (DiscoveRx), percent of control at 1 uM
Conditions in all cases: read-out: Percent Control
[1] = biological target: T1, MINK (Homo sapiens, UniProt Q8N4C8)
T1 construct: gene MINK1
How it was run: (§1)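 Selectivity profiled across 456 kinases/mutants by KinomeScan binding technology.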

[2] = biological target: CLK2 (Homo sapiens, UniProt P49760)
How it was run: as §1

[3] = biological target: FGFR2 (Homo sapiens, UniProt P21802)
How it was run: as §1

[4] = biological target: T2, MKK7 (Homo sapiens, UniProt O14733)
T2 construct: gene MAP2K7
How it was run: as §1

[5] = biological target: EPHA3 (Homo sapiens, UniProt P29320)
How it was run: as §1

[6] = biological target: EPHA1 (Homo sapiens, UniProt P21709)
How it was run: as §1

[7] = biological target: MYLK4 (Homo sapiens, UniProt Q86YV6)
How it was run: as §1

[8] = biological target: T3, DRAK1 (Homo sapiens, UniProt Q9UEE5)
T3 construct: gene STK17A
How it was run: as §1

[9] = biological target: T4, MEK1 (Homo sapiens, UniProt Q02750)
T4 construct: gene MAP2K1
How it was run: as §1

[10] = biological target: ITK (Homo sapiens, UniProt Q08881)
How it was run: as §1

[11] = biological target: ANKK1 (Homo sapiens, UniProt Q8NFD2)
How it was run: as §1

[12] = biological target: PIK3CA(M1043I) (Homo sapiens, UniProt P42336, M1043I)
How it was run: as §1

[13] = biological target: SRPK1 (Homo sapiens, UniProt Q96SB4)
How it was run: as §1

[14] = biological target: KIT(V559D) (Homo sapiens, UniProt P10721, V559D)
How it was run: as §1

[15] = biological target: SYK (Homo sapiens, UniProt P43405)
How it was run: as §1

[16] = biological target: GRK7 (Homo sapiens, UniProt Q8WTQ7)
How it was run: as §1

[17] = biological target: T5, PIP5K2C (Homo sapiens, UniProt Q8TBX8)
T5 construct: gene PIP4K2C
How it was run: as §1

[18] = biological target: BTK (Homo sapiens, UniProt Q06187)
How it was run: as §1

[19] = biological target: AURKA (Homo sapiens, UniProt O14965)
How it was run: as §1

[20] = biological target: PLK2 (Homo sapiens, UniProt Q9NYY3)
How it was run: as §1

[21] = biological target: EGFR (Homo sapiens, UniProt P00533)
How it was run: as §1

[22] = biological target: T6, JAK3(JH1domain-catalytic) (Homo sapiens, UniProt P52333)
T6 construct: JH1domain-catalytic
How it was run: as §1

[23] = biological target: MELK (Homo sapiens, UniProt Q14680)
How it was run: as §1

[24] = biological target: CAMK1D (Homo sapiens, UniProt Q8IU85)
How it was run: as §1

[25] = biological target: DDR2 (Homo sapiens, UniProt Q16832)
How it was run: as §1

GRK7, sequence (Q8WTQ7 whole entry): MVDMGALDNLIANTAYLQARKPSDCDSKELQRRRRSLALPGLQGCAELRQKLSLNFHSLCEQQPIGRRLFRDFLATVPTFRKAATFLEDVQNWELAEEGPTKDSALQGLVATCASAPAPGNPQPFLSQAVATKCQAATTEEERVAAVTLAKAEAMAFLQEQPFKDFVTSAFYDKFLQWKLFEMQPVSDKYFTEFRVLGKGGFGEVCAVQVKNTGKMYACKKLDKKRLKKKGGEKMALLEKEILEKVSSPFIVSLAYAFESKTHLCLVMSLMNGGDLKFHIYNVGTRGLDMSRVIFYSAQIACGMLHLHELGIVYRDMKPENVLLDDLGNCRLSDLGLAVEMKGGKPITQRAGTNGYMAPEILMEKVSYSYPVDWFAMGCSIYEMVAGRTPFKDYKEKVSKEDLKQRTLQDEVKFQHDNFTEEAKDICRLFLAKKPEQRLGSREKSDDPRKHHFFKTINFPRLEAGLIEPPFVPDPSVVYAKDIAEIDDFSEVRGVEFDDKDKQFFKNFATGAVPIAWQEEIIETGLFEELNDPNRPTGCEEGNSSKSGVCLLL
T3 sequence (Q9UEE5 whole entry): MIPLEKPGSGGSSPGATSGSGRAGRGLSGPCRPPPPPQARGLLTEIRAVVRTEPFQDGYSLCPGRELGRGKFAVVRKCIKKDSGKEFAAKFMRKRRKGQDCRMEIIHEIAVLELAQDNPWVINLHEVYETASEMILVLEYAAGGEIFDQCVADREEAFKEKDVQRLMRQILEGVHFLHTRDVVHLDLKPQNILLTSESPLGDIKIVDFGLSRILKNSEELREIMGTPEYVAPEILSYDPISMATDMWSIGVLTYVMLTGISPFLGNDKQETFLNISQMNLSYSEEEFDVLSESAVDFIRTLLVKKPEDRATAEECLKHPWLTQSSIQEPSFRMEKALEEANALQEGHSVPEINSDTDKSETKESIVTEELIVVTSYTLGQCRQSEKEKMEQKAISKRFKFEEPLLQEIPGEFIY
EPHA3, sequence (P29320 whole entry): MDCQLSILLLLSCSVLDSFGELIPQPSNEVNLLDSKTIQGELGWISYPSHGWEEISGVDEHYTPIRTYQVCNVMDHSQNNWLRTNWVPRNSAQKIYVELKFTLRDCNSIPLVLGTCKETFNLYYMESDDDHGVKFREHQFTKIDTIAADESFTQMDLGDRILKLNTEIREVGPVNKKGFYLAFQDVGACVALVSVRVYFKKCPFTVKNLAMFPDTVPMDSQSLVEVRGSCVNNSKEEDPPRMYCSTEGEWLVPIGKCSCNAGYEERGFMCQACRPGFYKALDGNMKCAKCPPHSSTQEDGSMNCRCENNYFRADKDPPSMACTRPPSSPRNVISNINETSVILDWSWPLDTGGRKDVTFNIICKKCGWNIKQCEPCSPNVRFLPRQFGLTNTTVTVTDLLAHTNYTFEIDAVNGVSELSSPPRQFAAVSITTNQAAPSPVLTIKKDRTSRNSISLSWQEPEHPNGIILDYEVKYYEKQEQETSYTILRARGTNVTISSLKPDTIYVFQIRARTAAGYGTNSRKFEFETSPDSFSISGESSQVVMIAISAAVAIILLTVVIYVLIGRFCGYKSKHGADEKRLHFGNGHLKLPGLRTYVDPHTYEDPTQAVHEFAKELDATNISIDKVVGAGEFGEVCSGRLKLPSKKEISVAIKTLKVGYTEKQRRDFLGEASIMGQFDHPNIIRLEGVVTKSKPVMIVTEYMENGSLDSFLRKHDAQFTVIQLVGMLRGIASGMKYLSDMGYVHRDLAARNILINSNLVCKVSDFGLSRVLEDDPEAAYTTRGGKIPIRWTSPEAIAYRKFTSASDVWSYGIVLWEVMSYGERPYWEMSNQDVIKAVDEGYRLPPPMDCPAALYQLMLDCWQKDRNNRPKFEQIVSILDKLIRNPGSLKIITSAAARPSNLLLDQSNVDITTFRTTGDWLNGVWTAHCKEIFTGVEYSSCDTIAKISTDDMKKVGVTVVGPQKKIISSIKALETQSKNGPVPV
EGFR, sequence (P00533 whole entry): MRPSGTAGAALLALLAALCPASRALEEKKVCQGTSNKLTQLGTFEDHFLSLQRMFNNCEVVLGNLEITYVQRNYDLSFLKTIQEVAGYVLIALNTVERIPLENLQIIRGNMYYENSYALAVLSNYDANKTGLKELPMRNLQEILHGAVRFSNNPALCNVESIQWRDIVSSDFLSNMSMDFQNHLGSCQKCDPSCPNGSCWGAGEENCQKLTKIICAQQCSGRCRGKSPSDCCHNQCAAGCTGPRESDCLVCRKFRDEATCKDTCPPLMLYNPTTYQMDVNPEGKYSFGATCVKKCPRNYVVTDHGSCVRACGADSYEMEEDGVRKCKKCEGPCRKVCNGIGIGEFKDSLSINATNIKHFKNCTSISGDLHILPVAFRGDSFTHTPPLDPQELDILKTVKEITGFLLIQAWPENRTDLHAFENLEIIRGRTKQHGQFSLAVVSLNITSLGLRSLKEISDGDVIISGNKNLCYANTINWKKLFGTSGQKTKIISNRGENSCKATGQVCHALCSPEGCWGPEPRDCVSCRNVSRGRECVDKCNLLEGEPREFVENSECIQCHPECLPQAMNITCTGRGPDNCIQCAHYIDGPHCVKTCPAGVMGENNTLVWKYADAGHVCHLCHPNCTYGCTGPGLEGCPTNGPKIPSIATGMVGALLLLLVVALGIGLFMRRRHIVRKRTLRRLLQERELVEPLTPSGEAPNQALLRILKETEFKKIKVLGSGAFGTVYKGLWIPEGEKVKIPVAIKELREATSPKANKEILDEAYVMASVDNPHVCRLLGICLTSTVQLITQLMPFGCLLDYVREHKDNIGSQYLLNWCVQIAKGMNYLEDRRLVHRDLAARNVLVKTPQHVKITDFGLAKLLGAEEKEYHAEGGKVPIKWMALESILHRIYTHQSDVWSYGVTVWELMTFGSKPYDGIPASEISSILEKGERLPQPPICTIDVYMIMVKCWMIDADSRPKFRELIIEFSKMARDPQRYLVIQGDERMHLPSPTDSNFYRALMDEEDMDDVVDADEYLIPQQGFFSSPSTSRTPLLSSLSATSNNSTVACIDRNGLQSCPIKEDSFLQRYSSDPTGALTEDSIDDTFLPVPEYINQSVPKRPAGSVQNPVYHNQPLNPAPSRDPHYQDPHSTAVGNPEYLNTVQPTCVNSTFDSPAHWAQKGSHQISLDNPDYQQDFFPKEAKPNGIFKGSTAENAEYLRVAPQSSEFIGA
CAMK1D, sequence (Q8IU85 whole entry): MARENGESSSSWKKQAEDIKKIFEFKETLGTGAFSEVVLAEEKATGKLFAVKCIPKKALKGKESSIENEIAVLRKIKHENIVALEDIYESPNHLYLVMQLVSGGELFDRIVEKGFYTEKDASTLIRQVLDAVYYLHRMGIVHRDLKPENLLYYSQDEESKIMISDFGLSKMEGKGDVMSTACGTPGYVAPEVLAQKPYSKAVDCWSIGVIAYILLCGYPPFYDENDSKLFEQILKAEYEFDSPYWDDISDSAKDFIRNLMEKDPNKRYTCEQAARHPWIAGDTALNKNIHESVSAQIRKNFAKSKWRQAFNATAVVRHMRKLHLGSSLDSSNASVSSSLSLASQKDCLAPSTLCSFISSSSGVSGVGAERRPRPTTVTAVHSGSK
MELK, sequence (Q14680 whole entry): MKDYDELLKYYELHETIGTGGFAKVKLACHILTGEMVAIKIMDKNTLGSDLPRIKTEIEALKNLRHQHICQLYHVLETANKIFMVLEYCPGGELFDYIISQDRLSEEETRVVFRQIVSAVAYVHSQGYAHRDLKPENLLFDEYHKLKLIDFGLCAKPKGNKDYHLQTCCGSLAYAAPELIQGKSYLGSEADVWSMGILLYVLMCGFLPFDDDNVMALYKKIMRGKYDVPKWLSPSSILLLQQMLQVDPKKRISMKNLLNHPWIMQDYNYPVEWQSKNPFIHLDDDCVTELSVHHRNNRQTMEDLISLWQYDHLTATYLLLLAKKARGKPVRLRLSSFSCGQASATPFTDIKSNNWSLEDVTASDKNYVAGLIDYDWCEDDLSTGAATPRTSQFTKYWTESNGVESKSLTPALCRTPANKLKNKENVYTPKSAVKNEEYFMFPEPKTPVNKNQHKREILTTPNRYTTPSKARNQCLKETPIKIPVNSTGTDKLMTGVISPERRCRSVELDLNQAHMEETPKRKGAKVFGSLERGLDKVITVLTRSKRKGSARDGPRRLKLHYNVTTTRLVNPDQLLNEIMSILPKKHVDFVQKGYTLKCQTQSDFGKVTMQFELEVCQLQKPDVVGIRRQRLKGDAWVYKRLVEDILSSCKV
BTK, sequence (Q06187 whole entry): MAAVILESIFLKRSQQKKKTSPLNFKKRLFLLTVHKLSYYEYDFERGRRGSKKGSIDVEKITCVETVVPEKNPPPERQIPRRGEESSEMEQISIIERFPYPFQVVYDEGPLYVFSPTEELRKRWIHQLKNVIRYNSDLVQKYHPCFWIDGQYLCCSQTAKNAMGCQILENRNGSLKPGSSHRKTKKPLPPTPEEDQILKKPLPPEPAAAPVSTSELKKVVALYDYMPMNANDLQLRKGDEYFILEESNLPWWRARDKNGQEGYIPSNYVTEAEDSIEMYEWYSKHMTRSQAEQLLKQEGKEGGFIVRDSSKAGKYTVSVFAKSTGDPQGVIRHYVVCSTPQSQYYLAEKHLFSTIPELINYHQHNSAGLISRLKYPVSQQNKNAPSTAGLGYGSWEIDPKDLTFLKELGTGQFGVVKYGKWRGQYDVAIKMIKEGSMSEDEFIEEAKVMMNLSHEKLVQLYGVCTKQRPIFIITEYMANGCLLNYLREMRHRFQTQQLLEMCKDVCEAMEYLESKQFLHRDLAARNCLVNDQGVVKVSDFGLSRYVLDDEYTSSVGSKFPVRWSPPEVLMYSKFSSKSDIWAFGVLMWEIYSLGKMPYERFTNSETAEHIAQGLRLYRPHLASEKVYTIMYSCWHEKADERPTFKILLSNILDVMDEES

C=CC(=O)Nc1cc(-n2c(=O)ccc3cnc4ccc(-n5cccn5)cc4c32)ccc1C [CHMFL-BTK-11]
remaining binding at 1 µM [1]: 64%
remaining binding at 1 µM [2]: 100%
remaining binding at 1 µM [3]: 88%
remaining binding at 1 µM [4]: 77%
remaining binding at 1 µM [5]: 97%
remaining binding at 1 µM [6]: 100%
remaining binding at 1 µM [7]: 100%
remaining binding at 1 µM [8]: 96%
remaining binding at 1 µM [9]: 100%
remaining binding at 1 µM [10]: 100%
remaining binding at 1 µM [11]: 81%
remaining binding at 1 µM [12]: 99%
remaining binding at 1 µM [13]: 100%
remaining binding at 1 µM [14]: 100%
remaining binding at 1 µM [15]: 93%
remaining binding at 1 µM [16]: 100%
remaining binding at 1 µM [17]: 90%
remaining binding at 1 µM [18]: 8.2%
remaining binding at 1 µM [19]: 71%
remaining binding at 1 µM [20]: 91%
remaining binding at 1 µM [21]: 88%
remaining binding at 1 µM [22]: 5.7%
remaining binding at 1 µM [23]: 73%
remaining binding at 1 µM [24]: 100%
remaining binding at 1 µM [25]: 99%
